Patent US5863893A, “Factor VIIa inhibitors from kunitz domain proteins” (Genentech, Inc., priority 1995, dated 1999)

Columns and labels:
rabbit plasma = assay: PT clotting time in rabbit plasma; assay type: biochemical; conditions: 40 μM, rabbit thromboplastin diluted two-fold
Procedure: Samples of rabbit plasma were assayed using an MLA 800 coagulometer and Dade reagents. Actin FS® was the activator in the APTT assay. Rabbit Thromboplastin with Ca++ was used for the PT assays; the rabbit thromboplastin was diluted two-fold. All mutant inhibitors tested prolonged clotting by at least one fold. […] A greater than 10 fold prolongation of the clotting time at 40 μM was observed.

[1] = tested on: New Zealand white rabbits; assay: Rabbit deep medial injury model (carotid artery patency and thrombus weight); assay type: in vivo; conditions: for Clot (mgs): mean ±sem
Procedure: Male New Zealand white rabbits (~4 kg) were anesthetized to surgical anesthesia plane with an IM injection of Ketamine/Xylaxine. The rabbits were placed supine on a restraining board, warmed to 37° C., and the neck and inner thigh area shaved. Teflon catheters were replaced in a marginal ear vein and femoral artery for drug delivery and sample collection respectively. Prior to treatment, blood samples were collected for coagulation tests (APTT and PT). Bleeding time was assessed from a cut made in the cuticle portion of a hind limb nail. Incisions were made in the neck region and the entire left common carotid artery and its branches were surgically isolated. An ultrasonic flow probe (Transonics®) was placed on the common carotid approximately 5 cm caudal to the common-internal bifurcation. After blood flow reached a stable baseline, drugs (saline or test compounds) were delivered via the marginal ear vein. A deflated embolectomy catheter (Fogarty®, 3F) was then introduced into the lumen of the common via an incision in the lingual branch. Blood flow through the artery was stopped briefly while the catheter was introduced and loosely secured with 2-0 silk tie at the incision site. After the catheter was in place and secure, blood flow was restored. The deflated balloon was advanced to within 2 mm of the flow probe and inflated with saline until resistance of the vessel wall was felt. The catheter was pulled back with a steady motion to the first branch and then deflated. This procedure was repeated a total of six times for each experimental animal, after which the catheter was removed. […] Over 40 minutes, blood samples were taken for APTT and PT measurements, cuticle bleeding times were assessed and blood flow through the carotid monitored. Duration of patency was defined as the total amount of time (maximum=40 minutes) that any measurable blood flow is detected in the artery. Patency rate refers to the percentage of animals tested who had carotid artery blood flow ≥5 minutes. At the end of the experiment the rabbit was euthanized and the carotid artery removed and opened. If any thrombus was present, it was removed, blotted and the weight recorded.
[Heparin was dosed as a 25 u/kg bolus followed by a continuous infusion of 1) 0.5 u/kg/min or 2) 1 u/kg/min. Other reagents were given as a 2 mg/kg IV bolus. With the exception of the patency data, values are expressed as means ±sem.]

normal human plasma = assay: Activated partial thromboplastin time (APTT) assay; assay type: biochemical
Procedure: For the activated partial thromboplastin time (APTT) assays, the activation time was set at 120 sec and acquisition time at 300 to 600 sec depending on the expected outcome of the assay. Citrated normal human plasma and inhibitor were incubated together. The sample (plasma and inhibitor) and activator (Instrumentation Laboratories Ellagic acid/Phospholipid mix Test Reagent) were automatically pipetted and incubated together for 2 min at 37° C., then CaCl2 was added and clotting time determined by means of optical assessment. The total incubation time of inhibitor with plasma was ca. 3 min before addition of activator, and 5 min before addition of CaCl2.

TF-induced coagulation = conditions: cited from earlier work
TF-FVIIa = TF-FVIIa (Homo sapiens, UniProt P08709); conditions: read-out: Ki, competitive inhibition of TF-FVIIa activity; cited from earlier work
[2] = 25 u/kg bolus then continuous infusion 0.5 u/kg/min
[3] = 25 u/kg bolus then continuous infusion 1 u/kg/min

Chain of TF-FVIIa (P08709 213-466 limits assumed): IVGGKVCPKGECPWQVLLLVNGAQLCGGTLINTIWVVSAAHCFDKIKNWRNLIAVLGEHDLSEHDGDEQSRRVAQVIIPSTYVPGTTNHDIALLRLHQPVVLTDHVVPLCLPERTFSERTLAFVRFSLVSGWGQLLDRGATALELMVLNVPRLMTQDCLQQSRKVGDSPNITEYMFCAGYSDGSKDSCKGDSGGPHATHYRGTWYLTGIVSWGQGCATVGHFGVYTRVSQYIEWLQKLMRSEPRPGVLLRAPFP
Chain of TF-FVIIa (P08709 61-212 limits assumed): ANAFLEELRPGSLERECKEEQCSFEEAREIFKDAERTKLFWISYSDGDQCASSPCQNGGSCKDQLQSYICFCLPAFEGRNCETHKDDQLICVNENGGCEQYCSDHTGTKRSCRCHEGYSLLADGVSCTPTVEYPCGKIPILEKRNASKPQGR
Chain of TF-FVIIa (P13726 33-295 partner): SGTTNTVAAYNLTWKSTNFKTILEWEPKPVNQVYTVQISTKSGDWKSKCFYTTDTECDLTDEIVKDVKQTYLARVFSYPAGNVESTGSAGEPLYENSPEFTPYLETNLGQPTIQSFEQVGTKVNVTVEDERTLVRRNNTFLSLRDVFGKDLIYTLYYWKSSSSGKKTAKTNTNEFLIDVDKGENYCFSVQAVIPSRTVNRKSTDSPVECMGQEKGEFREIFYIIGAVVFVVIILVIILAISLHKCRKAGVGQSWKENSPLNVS

Alzheimer's amyloid β-protein precursor inhibitor (VREVCSEQAETGPCRAMISRWYFDVTEGKCAPFFYGGCGGNRNNFDTEEYCMAVCGSA) [APPI]
PT, fold increase over baseline (rabbit plasma): 1.4 fold | Patency (%) ([1]; 2 mg/kg IV bolus, animals with carotid artery blood flow ≥5 minutes): 40% | Clot (mgs) ([1]; 2 mg/kg IV bolus, thrombus weight): 49.5 ± 18.2 mgs | APTT clotting time, fold prolongation (normal human plasma; 40 μM inhibitor, uninhibited clotting time 31 s): 3.6 fold | APTT clotting time, fold prolongation (normal human plasma; ca. 7 μM inhibitor): ca. 3 fold

Bovine pancreatic trypsin inhibitor [BPTI]
concentration needed to prolong the clotting time 1.4-fold in a PT assay (TF-induced coagulation): ca. 75 pM | Ki (TF-FVIIa): 30 µM

Heparin
Patency (%) [1, 2]: 67% | Clot (mgs) [1, 2]: 13.6 ± 4.7 mgs | Patency (%) [1, 3]: 100% | Clot (mgs) [1, 3]: 19.1 ± 8.5 mgs | patency and clot size compared to the saline control (in words) ([1]; doses as in Table III): significantly prolonged patency and reduced clot size
